Test [1] deals with NITD609-R2 (PfATP4 T418N and P990R, parent Dd2). As to the kind of experiment: Cross-resistance EC50 assay, NITD609-R2. The settings on record: Plasmodium falciparum, SYBR green 72 hour assay, asynchronized parasites, 96-well or 1536-well format. The class given is cell-based. The source says: (§1) To evaluate potential overlapping activity against known antimalarial drug targets, we performed dose-response studies with each compound against our assembled set of drug-resistant lines and their corresponding parents, in an asexual blood stage proliferation assay (Table 1). Comparisons were made to the drug-sensitive strain 3D7 when a parent was unavailable (TM90C2A, W2 and Dd2). As laboratories conducted EC50 assays with different strains and protocols, all comparisons were made between assays from the same laboratory and under the same assay conditions. Compounds displaying >5-fold EC50 shifts relative to the parent or sensitive strain were flagged as having potentially non-novel targets. Average fold shifts per strain ranged from 0.82 to 2.34, with a median of 1.23 indicating there was not common resistance to any one resistant clone. No resistance patterns were observed when classifying the compounds based on chemical structure, but this was not surprising given the diversity of compounds chosen. On the other hand, given that these confirmed compounds were derived from larger unconfirmed hit lists to which some filtration criteria may have been applied (for example, elimination of obvious dihydrofolate reductase inhibitors[32]), some[10][11][12][13] pre-existing bias may exist in the set. […]
(§2) Alternatively, a SYBR Green-based proliferation approach was used for the 72-h assay, as previously described. Briefly, a culture of either synchronized or asynchronous parasitized RBCs (0.3% parasitemia and 4% haematocrit) in screening medium (identical to supplemented medium above except no serum was added) was exposed to serial drug dilutions. Plates were incubated at 37 °C and gassed with 93% N2, 4% CO2 and 3% O2 for 72 h. Following incubation, 10 × SYBR Green I (Invitrogen; supplied in 10,000 × concentration) in lysis buffer ([…], 5 mM EDTA, 0.16% Saponin wt per vol and 1.6% Triton X vol per vol) was added to the wells and the plates were incubated overnight at room temperature before plate reading. EC50 assays were repeated three times, taking the average EC50 value from each assay set, and removing any outliers using a single iteration of Grubbs' test, eliminating values with z-scores above the critical z-value (α=0.05). The raw EC50 values for synchronized parasites assayed in a 384-well format are listed in Supplementary Data 4. The raw EC50 values for asynchronous parasites assayed in a 96 or 1536-well format are listed in Supplementary Data 5.
(§3) EC50 values for each strain were compared with those of the corresponding parent strain to determine fold-shift changes and identify resistance. To minimize the cause variance between assays, all comparisons were conducted between strains assayed under identical conditions. A one-way ANOVA followed by a Dunnet's post-test was conducted in GraphPad Prism to identify significant changes between the parent and resistant strain.

Test [2] relates to DHODH (E182D, parent 3D7). The test is described as follows: Cross-resistance EC50 assay, DHODH. The class given is cell-based. The settings on record: Plasmodium falciparum; SYBR green 72 hour assay; synchronized parasites; 384-well format; strain DHODH (3D7 parent).
From the text: as §1, §2, §3

In test [3] the test system is ProRS (prolyl t-RNA synthetase L482H, parent Dd2). As to the kind of experiment: Cross-resistance EC50 assay, ProRS. The class given is cell-based. The settings on record: Plasmodium falciparum; SYBR green 72 hour assay; synchronized parasites; 384-well format; strain ProRS (Dd2 parent).
From the text: as §1, §2, §3

The next test deals with P. falciparum. The test is described as follows: Rate of killing (parasite viability) assay. The format is cell-based, Plasmodium falciparum. The settings on record: profile compared with chloroquine, pyrimethamine, atovaquone; 48 h treatment. As for the experimental part:
To identify whether selection success could be predicted by compound speed of action, and to gain a greater insight into the potential mechanisms of action, assays were performed to test the killing rate (Supplementary Data 1)[33]. To quantify the killing rate, viability time-course profiles for each compound were compared with antimalarials known to have fast (chloroquine), moderate (pyrimethamine) or slow (atovaquone) rate of action. These rates were then compared with other compound characteristics, including cross-resistance profile, selection success, potency and structural characteristics to identify any possible trends. […] One compound's rate of killing, MMV666080, was unidentifiable due to compound availability. No correlation was seen between compound structure and speed of action. Additionally, there was no correlation found between killing rate and compound potency against 3D7, nor between potency and selection success (Supplementary Fig. 2).
Rate of killing was determined for each compound following a previously described methodology, which uses the invasion of fresh erythrocytes as surrogate of parasite viability. Briefly, parasites were treated with compounds for 48 h. Compound was washed out and fresh-labelled erythrocytes added to the treated parasites. Double stained erythrocytes (RBC label plus parasite DNA label) were quantified and per cent of survival determined.

Results on 15 compounds are retold here after PMC4912613, “A broad analysis of resistance development in the malaria parasite” (Nature Communications, 2016).

In general, EC50 refers to the midpoint of the concentration-response curve. As for `CN(C)S(=O)(=O)c1cc(-c2ccc3nccc(-c4cccc(S(N)(=O)=O)c4)c3c2)cnc1N` [MMV024038], the half-maximal effective concentration (EC50) amounted to 0.958 µM in test [1], 216 nM in test [2] and 143 nM in test [3]. The “Killing Rate” value with P. falciparum was “PYR/CQ (moderate)”.
In the same order, the values of `Cc1ccc(S(=O)(=O)n2cc(-c3ccnc(N)c3)c3cc(Br)cnc32)cc1` [MMV024114] are 1.86 µM, 395 nM, 669 nM and “PYR/CQ (moderate)”.
In the same order, the values of `CNCc1ccc2nc(-c3coc(Cc4cc(Cl)ccc4OCC(C)C)n3)[nH]c2c1.Cl.Cl` [MMV026596] are 0.206 µM, 392 nM, 349 nM and “PYR (moderate)”.
For the compound `COc1cc(-c2nc(-c3ccccc3)c(-c3ccccc3)[nH]2)ccc1OCCN(C)C` [MMV027496], the concentration giving a half-maximal response (EC50) in test [1] worked out at 0.755 µM; in test [2], 128 nM; in test [3], 311 nM. Moreover, the “Killing Rate” value in the test on P. falciparum is listed as “PYR/CQ (moderate)”.
For `CC(C)c1cccc(C(NC(=O)C2Cc3ccccc3CN2C(=O)c2cccc(N3CCOCC3)c2)C2CCCC2)c1` (stereo not drawn) [MMV028038], the EC50 is 0.612 µM in test [1], 1270 nM in test [2] and 297 nM in test [3]. Further, the “Killing Rate” value in the test on P. falciparum is “ATQ (slow)”.
In the same order, the values of `CN(C)CCCN(C)C(=O)C1Cc2cc(-c3ccccc3)ccc2N1S(=O)(=O)c1ccccc1` (stereo not drawn) [MMV028895] are 2.17 µM, 81 nM, 371 nM and “ATQ (slow)”.
In the same order, the values of `O=C(NCC(CCCN1CCC(c2c[nH]c3ccccc23)CC1)c1ccccc1)Nc1ccc(Cl)c(Cl)c1` (stereo not drawn) [MMV029272] are 0.152 µM, 148 nM, 592 nM and “PYR (moderate)”.
In the case of `CC(C)(C)OC(=O)N1CCN(c2ccccc2NC(=O)c2cccc(C(F)(F)F)c2Oc2ccc(F)cc2)CC1` [MMV030666], the EC50 in test [1] came out at 0.221 µM; in test [2], 392 nM; in test [3] it was 284 nM. For the same compound, in the test with P. falciparum, the “Killing Rate” value is “PYR (moderate)”.
As for `CC(NCc1ccccc1)c1cc(Cl)ccc1O` (stereo not drawn) [MMV665789], the values for the EC50 in test [1], in test [2] and in test [3] were 0.261 µM, 728 nM and 334 nM, respectively. The “Killing Rate” value in the test on P. falciparum was “PYR (moderate)”.
In the same order, the values of `FC(F)(F)c1cccc(Nc2nc3ccccc3nc2Nc2cccc(C(F)(F)F)c2)c1` [MMV665794] are 0.321 µM, 187 nM, 93 nM and “PYR (moderate)”.
In the same order, the values of `O=C(Nc1ccc(Cl)c(Cl)c1)Nc1ccc(Cl)c(Cl)c1` [MMV665852] are 1.75 µM, 1770 nM, 716 nM and “CQ (fast)”.
In the same order, the values of `OC(CNC1CCCCC1)Cn1c2ccc(I)cc2c2cc(I)ccc21` (stereo not drawn) [MMV665882] are 0.046 µM, 51 nM, 25 nM and “ATQ (slow)”.
`O=C(Nc1ccccc1O)c1ccc(Oc2cccc(C(=O)Nc3ccccc3O)c2)cc1` [MMV665888]: the EC50 in test [1] worked out at 0.812 µM; in test [2], 1020 nM; in test [3], 495 nM. For the same compound, the “Killing Rate” value in the test with P. falciparum was “PYR (moderate)”.
In the same order, the values of `COc1ccc(C(=O)C2CC2c2ccc(Cl)cc2)cc1` (stereo not drawn) [MMV665924] are 1.69 µM, 927 nM, 966 nM and “CQ (fast)”.
In the same order, the values of `CCC(C)NCC(O)(c1ccc(Cl)cc1)c1ccc(Cl)cc1` (stereo not drawn) [MMV665928] are 0.18 µM, 878 nM, 360 nM and “CQ (fast)”.
